Calls of active or inactive are those of the source.
Experiments:
[1] = target: T1, Heat shock factor protein 1 (Mus musculus, UniProt P38532); assay: decrease of HSF1-responsive luciferase luminescence – cell-based, NIH3T3, dose retest, confirmation (AID 2382); format: functional;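 also: NIH3T3 fibroblasts with HSF1-driven luciferase reporter stressed by proteasome inhibitor MG132; luminescence from HSF1-driven luciferase expression after 8 hours of MG132 stress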
T1 sequence (P38532 whole entry): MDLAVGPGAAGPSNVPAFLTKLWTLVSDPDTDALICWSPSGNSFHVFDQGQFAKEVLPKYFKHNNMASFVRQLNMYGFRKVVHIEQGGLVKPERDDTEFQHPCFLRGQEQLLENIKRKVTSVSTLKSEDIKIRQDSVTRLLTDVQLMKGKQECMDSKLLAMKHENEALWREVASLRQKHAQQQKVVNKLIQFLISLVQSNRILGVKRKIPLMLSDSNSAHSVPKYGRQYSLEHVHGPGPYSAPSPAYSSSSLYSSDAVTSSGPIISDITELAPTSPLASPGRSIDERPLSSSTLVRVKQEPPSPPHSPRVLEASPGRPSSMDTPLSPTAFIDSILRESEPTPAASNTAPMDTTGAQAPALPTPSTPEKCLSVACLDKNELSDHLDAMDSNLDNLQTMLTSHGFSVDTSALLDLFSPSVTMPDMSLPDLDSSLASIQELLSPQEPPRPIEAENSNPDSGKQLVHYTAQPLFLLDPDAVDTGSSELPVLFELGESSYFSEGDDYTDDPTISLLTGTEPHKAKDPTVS

[2] = target: T2, Microphthalmia-associated transcription factor (Homo sapiens, UniProt O75030); assay: reducers of TRPM1 reporter luminescence, concentration series – cell-based, SK-MEL-5, cherry-picked, set 3, MITF inhibitor project, dose response (AID 493073); format: functional;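 also: SK-MEL-5 melanoma cells with luciferase driven by the MITF target TRPM1 promoter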
T2 sequence (O75030 whole entry): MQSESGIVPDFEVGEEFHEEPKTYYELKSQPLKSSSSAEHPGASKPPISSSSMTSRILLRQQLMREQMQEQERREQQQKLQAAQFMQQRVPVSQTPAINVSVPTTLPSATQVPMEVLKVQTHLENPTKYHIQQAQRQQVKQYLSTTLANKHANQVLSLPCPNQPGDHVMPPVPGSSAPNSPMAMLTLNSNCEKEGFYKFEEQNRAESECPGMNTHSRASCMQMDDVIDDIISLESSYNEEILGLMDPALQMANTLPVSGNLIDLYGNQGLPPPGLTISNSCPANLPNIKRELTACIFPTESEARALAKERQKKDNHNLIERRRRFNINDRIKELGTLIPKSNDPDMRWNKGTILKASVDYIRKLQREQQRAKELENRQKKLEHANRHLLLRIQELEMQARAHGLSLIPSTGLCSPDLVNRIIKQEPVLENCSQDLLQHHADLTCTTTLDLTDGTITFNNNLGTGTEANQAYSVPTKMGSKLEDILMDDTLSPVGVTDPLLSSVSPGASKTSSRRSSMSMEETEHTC

Cytochrome P450 2C9 = Cytochrome P450 2C9 (Homo sapiens, UniProt P11712)
Chain of Cytochrome P450 2C9 (P11712 whole entry): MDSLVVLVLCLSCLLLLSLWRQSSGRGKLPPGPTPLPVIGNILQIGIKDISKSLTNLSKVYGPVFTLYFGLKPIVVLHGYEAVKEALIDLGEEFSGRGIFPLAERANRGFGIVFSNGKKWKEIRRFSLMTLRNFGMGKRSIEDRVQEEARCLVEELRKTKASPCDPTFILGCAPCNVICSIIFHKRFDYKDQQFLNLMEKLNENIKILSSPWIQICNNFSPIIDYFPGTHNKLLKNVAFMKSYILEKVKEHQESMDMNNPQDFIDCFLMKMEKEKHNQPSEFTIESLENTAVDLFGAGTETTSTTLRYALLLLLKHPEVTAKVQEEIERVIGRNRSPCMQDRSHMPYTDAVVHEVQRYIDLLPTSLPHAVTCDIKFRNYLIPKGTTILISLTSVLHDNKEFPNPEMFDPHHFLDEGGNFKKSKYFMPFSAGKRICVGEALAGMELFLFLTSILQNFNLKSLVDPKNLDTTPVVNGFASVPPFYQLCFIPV

Cytochrome P450 2C19 = Cytochrome P450 2C19 (Homo sapiens, UniProt P33261); assay: Cytochrome panel assay with activity outcomes. Panel member name: p450-cyp2c19 Compounds with AC50 equal or less than 10 uM are considered active; format: functional; settings: read-out: AC50
Chain of Cytochrome P450 2C19 (P33261 whole entry): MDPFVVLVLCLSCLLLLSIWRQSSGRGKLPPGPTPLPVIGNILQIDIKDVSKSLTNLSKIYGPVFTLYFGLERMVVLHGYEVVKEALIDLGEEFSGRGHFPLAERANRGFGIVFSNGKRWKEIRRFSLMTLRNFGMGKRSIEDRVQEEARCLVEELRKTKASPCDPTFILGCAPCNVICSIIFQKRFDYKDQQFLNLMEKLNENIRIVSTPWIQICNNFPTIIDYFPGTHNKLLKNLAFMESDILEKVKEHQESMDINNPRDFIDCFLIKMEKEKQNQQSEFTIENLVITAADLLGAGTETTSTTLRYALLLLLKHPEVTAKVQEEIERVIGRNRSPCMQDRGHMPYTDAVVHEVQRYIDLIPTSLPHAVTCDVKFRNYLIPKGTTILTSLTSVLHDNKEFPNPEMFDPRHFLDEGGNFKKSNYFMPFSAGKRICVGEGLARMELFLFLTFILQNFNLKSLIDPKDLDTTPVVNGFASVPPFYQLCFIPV

BJ [3] = assay: cells; format: functional, cell-based; settings: Homo sapiens
BJ [4] = assay: BJ-TERT-LT-ST fibroblast viability loss – cell-based, RAS-independent, luminescence, dose response (AID 1935); format: functional; settings: Homo sapiens;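 also: BJ fibroblasts immortalized with TERT plus LT and ST oncogenes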
BJ [5] = assay: BJ-TERT fibroblast viability loss – cell-based, RAS-independent, luminescence, dose response (AID 1933); format: functional; settings: Homo sapiens
[6] = DRD fibroblast viability loss – cell-based, non-viral oncogenic, luminescence, dose response (AID 1934); format: functional; settings: Homo sapiens
Paired box protein Pax-8 = Paired box protein Pax-8 (Homo sapiens, UniProt Q06710); assay: PAX8 transcriptional activity inhibition in RMG-I – RMG-I cells, luciferase, cherry-pick, dose response (AID 687027); format: functional, cell-based;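 also: luciferase reporter driven by Pax8 target thyroperoxidase promoter measured by SteadyGlo luminescence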
Chain of Paired box protein Pax-8 (Q06710 whole entry): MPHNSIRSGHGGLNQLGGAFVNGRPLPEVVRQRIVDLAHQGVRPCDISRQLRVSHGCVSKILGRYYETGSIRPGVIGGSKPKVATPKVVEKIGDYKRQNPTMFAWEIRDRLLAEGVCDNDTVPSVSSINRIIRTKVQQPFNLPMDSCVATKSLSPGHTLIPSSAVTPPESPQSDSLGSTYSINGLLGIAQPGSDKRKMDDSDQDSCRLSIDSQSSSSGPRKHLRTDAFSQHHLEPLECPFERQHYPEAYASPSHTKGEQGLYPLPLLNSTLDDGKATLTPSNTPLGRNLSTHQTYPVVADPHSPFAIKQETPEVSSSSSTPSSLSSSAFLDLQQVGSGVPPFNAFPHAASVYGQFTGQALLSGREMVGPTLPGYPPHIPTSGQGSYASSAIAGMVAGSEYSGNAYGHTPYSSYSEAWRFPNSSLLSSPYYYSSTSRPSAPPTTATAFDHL

Cytochrome P450 2D6 = Cytochrome P450 2D6 (Homo sapiens, UniProt P10635);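 also: CYP2D6 member of a cytochrome P450 panel assay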
Chain of Cytochrome P450 2D6 (P10635 whole entry): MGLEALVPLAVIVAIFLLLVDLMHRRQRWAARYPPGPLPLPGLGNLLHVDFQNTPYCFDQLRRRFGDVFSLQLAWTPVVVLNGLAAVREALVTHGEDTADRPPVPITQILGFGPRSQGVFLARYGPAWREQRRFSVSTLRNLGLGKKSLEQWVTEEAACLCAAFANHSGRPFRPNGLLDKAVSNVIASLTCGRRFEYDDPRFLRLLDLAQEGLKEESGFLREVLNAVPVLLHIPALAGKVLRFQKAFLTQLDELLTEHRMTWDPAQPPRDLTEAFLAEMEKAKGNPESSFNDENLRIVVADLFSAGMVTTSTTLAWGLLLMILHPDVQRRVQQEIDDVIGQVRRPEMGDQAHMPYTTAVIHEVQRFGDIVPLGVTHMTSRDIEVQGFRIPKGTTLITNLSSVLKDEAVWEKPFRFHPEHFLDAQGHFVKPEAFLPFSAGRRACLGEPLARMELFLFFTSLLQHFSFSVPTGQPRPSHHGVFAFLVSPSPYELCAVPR

INS1 = assay: INS-1E survival protection against cytokine death – cell-based, luminescence, retest, dose response (AID 449756); format: functional; settings: Rattus norvegicus;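 also: cell death triggered by IL-1 beta plus TNF-alpha plus IFN-gamma mixture; protective hits raise ATP signal compared with cytokine alone wells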
[7] = target: T3, Corticotropin-releasing factor receptor 2/Corticotropin-releasing factor-binding protein (Homo sapiens, UniProt P24387+Q13324); assay: activators of CRF receptor 2 with binding protein – uHTS hits, confirmation (AID 602473); format: functional; settings: read-out: EC50_Mean
T3 sequence (Q13324 whole entry): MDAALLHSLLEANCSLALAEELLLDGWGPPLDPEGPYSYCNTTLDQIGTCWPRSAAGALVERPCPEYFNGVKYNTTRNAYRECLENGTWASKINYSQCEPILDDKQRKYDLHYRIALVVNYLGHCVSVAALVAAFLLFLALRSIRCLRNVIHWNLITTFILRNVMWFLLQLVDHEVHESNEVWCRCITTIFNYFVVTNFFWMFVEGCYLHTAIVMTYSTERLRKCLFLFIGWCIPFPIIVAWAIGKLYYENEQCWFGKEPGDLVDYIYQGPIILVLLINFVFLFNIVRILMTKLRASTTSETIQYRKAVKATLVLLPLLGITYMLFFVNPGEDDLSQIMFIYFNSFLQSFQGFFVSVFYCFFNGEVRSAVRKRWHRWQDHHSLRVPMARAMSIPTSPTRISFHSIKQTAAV
T3 sequence (P24387 whole entry): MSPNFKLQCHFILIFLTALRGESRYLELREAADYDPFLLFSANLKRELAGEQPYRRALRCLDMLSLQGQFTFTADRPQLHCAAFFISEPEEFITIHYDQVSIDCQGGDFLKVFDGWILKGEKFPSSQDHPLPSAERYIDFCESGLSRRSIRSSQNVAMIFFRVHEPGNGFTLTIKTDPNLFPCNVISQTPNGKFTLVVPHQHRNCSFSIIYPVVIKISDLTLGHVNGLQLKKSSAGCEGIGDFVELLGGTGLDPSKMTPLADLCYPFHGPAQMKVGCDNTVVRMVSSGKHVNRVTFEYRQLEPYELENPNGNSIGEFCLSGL

Protein RecA = target: T4, Protein RecA (Mycobacterium tuberculosis, UniProt P9WHJ3); assay: Fluorescence Cell-Free Homogeneous Dose Retest to Identify Inhibitors of RecA-Intein Splicing Activity. [Related pubchem assays (depositor defined):AID2097, AID2223, AID489010, AID492950]; format: functional
T4 sequence (P9WHJ3 whole entry): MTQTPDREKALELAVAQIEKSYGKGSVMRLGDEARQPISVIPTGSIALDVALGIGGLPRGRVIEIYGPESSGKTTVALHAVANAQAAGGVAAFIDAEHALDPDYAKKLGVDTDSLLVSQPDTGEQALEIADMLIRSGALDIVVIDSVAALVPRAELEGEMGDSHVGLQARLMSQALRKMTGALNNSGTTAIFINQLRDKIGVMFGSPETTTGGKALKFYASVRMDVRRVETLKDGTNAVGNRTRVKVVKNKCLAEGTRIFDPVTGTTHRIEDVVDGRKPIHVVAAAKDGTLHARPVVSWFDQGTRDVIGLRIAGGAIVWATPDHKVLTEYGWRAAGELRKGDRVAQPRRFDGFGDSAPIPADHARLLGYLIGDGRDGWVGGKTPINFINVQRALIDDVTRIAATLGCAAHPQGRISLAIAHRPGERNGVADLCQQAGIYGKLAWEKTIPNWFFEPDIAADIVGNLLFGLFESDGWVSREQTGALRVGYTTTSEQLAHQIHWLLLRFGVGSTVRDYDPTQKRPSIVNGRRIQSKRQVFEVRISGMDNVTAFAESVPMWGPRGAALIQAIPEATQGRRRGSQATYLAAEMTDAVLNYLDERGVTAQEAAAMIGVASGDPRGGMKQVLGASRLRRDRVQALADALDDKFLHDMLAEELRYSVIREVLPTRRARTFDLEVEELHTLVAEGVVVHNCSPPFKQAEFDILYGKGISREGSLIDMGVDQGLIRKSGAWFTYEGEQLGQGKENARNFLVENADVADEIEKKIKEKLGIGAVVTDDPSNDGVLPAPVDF

Leucine aminopeptidase = target: T5, Leucine aminopeptidase (Plasmodium falciparum 3D7, UniProt Q8IL11); assay: P. falciparum M17LAP inhibitors, primary screen, biochemical, fluorogenic H-Leu-NHMec substrate, 1536-well (AID 1619); format: functional
T5 sequence (Q8IL11 whole entry): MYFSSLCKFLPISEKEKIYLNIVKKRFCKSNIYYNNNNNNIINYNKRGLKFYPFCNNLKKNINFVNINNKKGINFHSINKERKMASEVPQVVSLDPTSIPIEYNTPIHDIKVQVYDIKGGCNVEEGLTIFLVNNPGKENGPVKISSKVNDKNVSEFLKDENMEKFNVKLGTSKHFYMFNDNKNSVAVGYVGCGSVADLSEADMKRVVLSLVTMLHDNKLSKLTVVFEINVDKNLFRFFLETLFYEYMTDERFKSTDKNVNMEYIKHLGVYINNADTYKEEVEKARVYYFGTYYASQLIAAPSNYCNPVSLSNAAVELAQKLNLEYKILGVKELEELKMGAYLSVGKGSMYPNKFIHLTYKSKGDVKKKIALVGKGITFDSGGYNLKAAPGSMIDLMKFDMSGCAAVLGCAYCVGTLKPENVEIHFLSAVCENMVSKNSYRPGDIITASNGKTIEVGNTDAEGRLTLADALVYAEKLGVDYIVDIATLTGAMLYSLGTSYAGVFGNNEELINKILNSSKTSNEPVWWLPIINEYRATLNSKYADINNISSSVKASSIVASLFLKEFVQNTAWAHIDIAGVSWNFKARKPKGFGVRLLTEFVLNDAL

[8] = target: T6, Replicative DNA helicase DnaB (Mycobacterium tuberculosis, UniProt P9WMR3); assay: DnaB intein splicing inhibitors, dose response, biochemical, cell-free fluorescence (AID 449749); format: functional
T6 sequence (P9WMR3 whole entry): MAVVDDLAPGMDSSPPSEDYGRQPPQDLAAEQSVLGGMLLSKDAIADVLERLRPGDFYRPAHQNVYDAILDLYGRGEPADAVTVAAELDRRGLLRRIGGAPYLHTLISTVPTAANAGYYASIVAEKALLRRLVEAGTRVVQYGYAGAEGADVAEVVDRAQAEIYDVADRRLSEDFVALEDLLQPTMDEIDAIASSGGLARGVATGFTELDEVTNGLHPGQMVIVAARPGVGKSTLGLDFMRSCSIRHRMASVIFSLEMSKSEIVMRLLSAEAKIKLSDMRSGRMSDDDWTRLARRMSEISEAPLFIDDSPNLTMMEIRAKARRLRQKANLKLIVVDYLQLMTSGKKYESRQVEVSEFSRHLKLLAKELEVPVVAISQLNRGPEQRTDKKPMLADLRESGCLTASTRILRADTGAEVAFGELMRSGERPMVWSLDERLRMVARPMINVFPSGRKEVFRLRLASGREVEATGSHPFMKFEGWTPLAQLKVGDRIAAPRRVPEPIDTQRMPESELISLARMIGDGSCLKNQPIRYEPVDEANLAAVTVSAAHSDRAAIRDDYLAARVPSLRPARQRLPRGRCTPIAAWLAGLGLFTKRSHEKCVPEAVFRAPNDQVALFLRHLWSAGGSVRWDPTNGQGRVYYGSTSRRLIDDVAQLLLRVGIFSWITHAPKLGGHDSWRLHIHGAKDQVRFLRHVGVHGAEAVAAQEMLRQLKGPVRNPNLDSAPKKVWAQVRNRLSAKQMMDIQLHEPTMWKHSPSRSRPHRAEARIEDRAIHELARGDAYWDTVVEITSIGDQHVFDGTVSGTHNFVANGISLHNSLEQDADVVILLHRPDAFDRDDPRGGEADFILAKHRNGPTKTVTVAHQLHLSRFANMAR

Structure (SMILES): CC1(C)Cc2c(sc(NC(=O)c3ccc4ncsc4c3)c2C(N)=O)C(C)(C)N1
- EC50 [1]: > 195 µM (not active)
- AC50 [2]: 10.1 µM (active)

Structure (SMILES): COc1ccccc1CNC(=O)C1CCN(S(=O)(=O)N2CC(C)CC(C)C2)CC1 (stereo unspecified)
- AC50 (Cytochrome P450 2C9): inconclusive
- AC50 (Cytochrome P450 2C19): 39.8 µM (inconclusive)

Structure (SMILES): COc1cc2c(c(OC)c1OC)-c1ccc(OC)c(=O)cc1C(NC(C)=O)CC2 (stereo unspecified)
- EC50 (BJ [3]): 0.627 µM (inconclusive)
- EC50 (BJ [4]): 0.249 µM (active)
- EC50 (BJ [5]): 0.348 µM (active)
- AC50 [2]: 0.056 µM (active)
- EC50 [6]: 0.351 µM (active)
- AC50 (Paired box protein Pax-8): < 0.26 µM (active)

Structure (SMILES): CCOc1ccc(-n2c(O)nnc2SCC(=O)Nc2ccccc2C)cc1
- AC50 (Cytochrome P450 2C9): inconclusive

Structure (SMILES): Cc1c(C)n(C)c2ccc(C(=O)Nc3cccc4ccccc34)cc12
- AC50 (Cytochrome P450 2C9): inconclusive
- AC50 (Cytochrome P450 2D6): 11.2 µM (inconclusive)

Structure (SMILES): COc1ccc(CNC(=O)C2CC(c3cccc([N+](=O)[O-])c3)=NO2)cc1 (stereo unspecified)
- AC50 (Cytochrome P450 2C9): inconclusive

Structure (SMILES): CCOC(=O)C1=NOC(CNC(=O)C2=NOC(CNC(=O)c3c(-c4ccccc4Cl)noc3C)C2)C1 (stereo unspecified)
- AC50 (Cytochrome P450 2C9): inconclusive
- AC50 (Cytochrome P450 2C19): 20 µM (inconclusive)

Structure (SMILES): Cc1cc(C(C)(C)C)cc(C)c1C[n+]1c2n(c3ccc(C(F)(F)F)cc31)CCCCC2
- AC50 [2]: 7.55 µM (active)
- AC50 (INS1): 3.43 µM (active)
- AC50 (Paired box protein Pax-8): 4.37 µM (active)

Structure (SMILES): Cc1cc2c(C(F)(F)F)cc(=O)oc2c2c1NCCC2
- EC50 [7]: 1.12 µM (active)
- AC50 (Cytochrome P450 2C9): inconclusive
- AC50 (Cytochrome P450 2C19): 1.26 µM (inconclusive)

Structure (SMILES): CCc1cccc(NC(=O)CSCc2cc(O)[nH]n2)c1
- EC50 (Protein RecA): 2.37 µM (active)
- IC50 (Leucine aminopeptidase): 25.9 µM (active)
- AC50 [8]: 3.37 µM (active)

Structure (SMILES): C=CCSc1nc(NC)c2sccc2n1
- AC50 (Cytochrome P450 2C9): inconclusive

Reference: ChEMBL document CHEMBL1201862, “PubChem BioAssay data set” (2004)
